We go through one substance from patent publication US5476840A, “New hexapeptidic derivatives, preparation process and use as medicaments of these new derivatives” (Roussel Uclaf, priority 1992, dated 1995).

Ends that are not written are not given here.

Assay [1] relates to demedullated rat. Kind of assay: Vasoconstrictive activity in a demedullated rat (increase in mean arterial pressure). The format is in vivo. The note with it: dose 10 mg/kg, venous route, demedullated male Sprague-Dawley rat. As to the method: Male Sprague-Dawley rats are anaesthetized with Nembutal (60 mg/kg) injected by intraperitoneal route. The animals are then demedullated, put under assisted respiration (1 ml/100 g--50 insufflations per minute), then the vagus nerves are sectioned. A carotid artery is catheterized to record the arterial pressure and the products to be studied are injected into the pudendal vein.
The animals receive endothelin 1 or the compound to be tested as cumulative injections by venous route, the administrations being spaced 2 minutes apart.
The increase in mean arterial pressure (MAP) induced by each compound is measured and expressed as a percentage variation relative to the initial pressure.

Assay [2] deals with pressure response to endothelin. Kind of assay: Antagonism of the effects of endothelin in a demedullated rat (inhibition of the pressure response to endothelin 1). The format is in vivo. On the procedure:
Male Sprague-Dawley rats are anaesthetized with Nembutal (60 mg/kg) injected by intraperitoneal route. The animals are then demedullated, put under assisted respiration (1 ml/100 g--50 insufflations per minute), then the vagus nerves are sectioned. A carotid artery is catheterized to record the arterial pressure and the products to be studied are injected into the pudendal vein. Ten minutes after the intravenous injection of the solvent or compounds to be tested, the animals receive administrations of endothelin 1 in a cumulative manner (1, 3, 10 and 30 μg/kg i.v.) every 2 minutes. The antagonistic activity is expressed as a percentage of the inhibition of the pressure response to endothelin administered alone, at doses of 3 and 10 μg/kg.

Regarding HAAIIW [Example 1], the “% increase of MAP” value in assay [1] was “+8%”. Further, the “Percent change in pressure response to endothelin (negative = reduction)” value in assay [2] (dose 5 μg/kg i.v., 3 μg endothelin) is on record as -27; in assay [2] (dose 5 μg/kg i.v., 10 μg endothelin), -19; in assay [2] (dose 10 μg/kg i.v., 3 μg endothelin), -60; in assay [2] (dose 10 μg/kg i.v., 10 μg endothelin) it was -33.
